# Legend:
# CLDN18.2 = CLDN18.2 expression after chemotherapeutic pretreatment (RT-PCR, western blot), DANG; format: cell-based, human; details: Gem 1 ng/ml or Gem 1 ng/ml + Ox 10 ng/ml, 2 days, vs untreated
# Method: For RNA isolation from pancreatic cancer cell lines, cells were seeded in 10 cm dishes and grown for 2-3 days until 80% confluent. RNA was isolated according to instructions supplied with the RNeasy® Mini Kit (Qiagen). cDNA preparation was performed following manufacturers instructions provided with the SuperScript® III First Strand kit (Invitrogen). RNA and cDNA samples were stored at -80°C.
# Quantitative analysis of CLDN18.2 transcripts was performed by amplifying oligo(dT)-primed cDNAs in a 40 cycle PCR reaction using PCR primers #5054s (5'-[…]-3') and #5060as (5'-[…]-3') differentiating between CLDN18.1 and CLDN18.2 isoforms. The reaction was prepared with SYBR Green (QuantiTect SYBR Green PCR Kit, Qiagen), which intercalates in double stranded DNA. The reactions and measurements were performed using the ABI-PRISM7900 Sequence Detection System instrument and software (Applied Biosystems).
# The relative expression levels of CLDN18 transcripts was computed using ΔΔCT calculation with respect to the house keeping gene HPRT.
# For isolation of proteins of pancreatic cancer cell lines, cells were seeded in 10 cm dishes and grown for 2-3 days until 80% confluent. […] Protein concentration was measured in a spectrophotometer (Absorption at 280nm) and samples were stored at -80°C until use. […]
# MiaPaCa-2-LVT xenografts = test: Subcutaneous MiaPaCa-2-LVT xenograft model; format: in vivo, Hsd:Athymic Nude-Foxn1^nu mice; details: up to 100 mg/kg gemcitabine without additional IMAB362 treatment
# DANG [1] = test: IMAB362-mediated ADCC on chemotherapy pretreated DANG; format: cell-based, human; details: DANG pretreated 2 days, Gem 1 ng/ml or Gem 1 ng/ml + Ox 10 ng/ml; vs untreated
# Method: Pancreatic cancer target cells were seeded two days in advance in flasks to obtain 80-90% confluent cultures on the day ADCC started. […] NUGC-4 sub 10cH11 subE10 Luci#2 cells (8000 cells/well) were seeded in addition as positive controls in all assays. Cells were cultivated for 4-6 h before addition of antibody and purified PBMCs.
# PBMCs were prepared from fresh human buffy coat obtained from healthy donors. About 3x 20-25 ml blood was diluted (1:2) with PBS and carefully layered on 4x 15 ml Ficol-Paque Plus (GE Healthcare) in 50 ml Falcon tubes. Gradients were centrifuged (25 min, 700 g). […] The pellets were resuspended in 50 ml PBS/2 mM EDTA and cells were counted. […]
# The next day, 10 µl 8% Triton X100/PBS solution was added to the lysis control wells and 10 µl PBS in all other wells. […] Luminescence resulting from the oxidation of […] by the luciferase of viable cells was measured using a microplate-reader (Infinite200, Tecan, Switzerland). Percentage of cellular cytotoxicity was calculated using the following formula: Specific killing (%) = 100−[(RLUsample−RLUtriton)/(RLUmedium ctrl−RLUtriton)×100] […]
# On the day ADCC started, the protocol described above was followed and cell surface expression of CLDN18 was determined in FACS analysis as described above.
# DANG [2] = test: Cell cycle analysis, DANG; format: cell-based, human; details: Gem 2 ng/ml, two days
# Method: Cells were plated in six-well plates, and 5-6 hours later chemotherapeutic agents were added for either 24 h 48 h or 3 days. Cells floating in the medium were combined with the adherent cell layer, which was trypsinized. Cells were washed. Either cell cycle analysis was started directly or cell surface staining was done before as described above. Cells are resuspended in 1 ml PBS and added to 3 ml 4% PFA. After 15 min fixation of cells at room temperature cells are pelleted and washed. For RNAse treatment cells were resuspended in 200 µl RNAse (10000 U/ml) plus 0.05% Triton X-100 and incubated for 30 min at 37°C. 1 ml PBS was added and samples were centrifuged and resuspended in 200 µl PBS/PJ 50 µg/ml. At least 30 min later samples were ready to be analyzed by flow cytometry. Cell cycle phase distribution was determined using FlowJo software to analyze DNA content histograms.
# BxPC3-LVT xenografts = test: Subcutaneous BxPC3-LVT xenograft model; format: in vivo, Hsd:Athymic Nude-Foxn1^nu mice; details: up to 100 mg/kg gemcitabine without additional IMAB362 treatment
# [3] = system: established MiaPaCa-2-LVT xenograft tumors; test: Established MiaPaCa-2-LVT xenograft tumors; format: in vivo, Hsd:Athymic Nude-Foxn1^nu mice; details: gemcitabine 2x 150 mg/kg per week, independent from IMAB362 treatment
# Capanl-LVT = test: Inhibition of proliferation (XTT), Capanl-LVT; format: cell-based, human; details: exposed for 4 days
# Method: (§1) To analyze dose-response curves of each chemotherapeutic agent, a proliferation assay was performed. Table 6: Pancreas cancer cell lines to analyze efficacy of gemcitabine or oxaliplatin
# (§2) Cells were seeded in 96well plates and after 4-6 hours gemcitabine or oxaliplatin was added in following concentrations: 1000, 500, 250, 100 and 20 ng/ml. The proliferation assay was incubated for 4 days at 37°C and 5% CO2. 50 µl XTT complete reagent (50 parts XTT + 1 part coupl. reagent mixed) was added and incubated at 37°C. Measurement of absorbance (cells plus supernatant) was done with the Tecan Safire after 3 h and 4 h. Inhibition of proliferation was calculated compared to medium values set as 100%. EC50 values for gemcitabine and oxaliplatin were calculated in the GraphPad Prism program.
# MiaPaCa-2-LVT = test: Inhibition of proliferation (XTT), MiaPaCa-2-LVT; format: cell-based, human; details: exposed for 4 days
# Method: as §1, §2
# DANG [4] = test: Inhibition of proliferation (XTT), DANG; format: cell-based, human; details: exposed for 4 days
# Method: as §1, §2
# BxPC3-LVT = test: Inhibition of proliferation (XTT), BxPC3-LVT; format: cell-based, human; details: exposed for 4 days
# Method: as §1, §2
# Kato III cells = test: Cell cycle analysis and cell growth, Kato III; format: cell-based, human; details: Kato III; 5-FU 10 or 100 ng/ml, oxaliplatin 50 or 500 ng/ml; 96 hours
# Method: Kato III cells, a human gastric tumor cell line, was cultivated in RPMI 1640 medium (Invitrogen) containing 20% FCS (Perbio) and 2 mM Glutamax (Invitrogen) at 37°C and 5% CO2, with or without cytostatic compounds. 5-FU (Neofluor from NeoCorp AG) was tested at a concentration of 10 or 100 ng/ml, and oxaliplatin (Hospira) was tested at a concentration of 50 or 500 ng/ml. […] Cells were harvested with EDTA/trypsin, washed and analysed.
# Cell cycle stages were determined based on measurement of cellular DNA content. This allows one to discriminate between cells in the G1-, S- or G2-phase of the cell cycle. In the S-phase DNA duplication occurs whereas in the G2-phase cells grow and prepare for mitosis. Cell cycle analysis was done using the CycleTEST PLUS DNA Reagent Kit from BD Biosciences following the manufacturer's protocol. Flow cytometry acquisition and analysis were performed by using BD FACS CantoII (BD Biosciences) and FlowJo (Tree Star) software.
# Kato III cells were pretreated for 4 days with Irinotecan or Docetaxel and analysed for CLDN18.2 expression and cell cycle arrest.
structure (smiles),measurement,setting,value
"Nc1ccn([C@@H]2O[C@H](CO)[C@@H](O)C2(F)F)c(=O)n1 [gemcitabine, 4-amino-1-(2-deoxy-2,2-difluoro-β-D-erythro-pentofuranosyl)pyrimidin-2(1H)-one]",mRNA and protein levels of CLDN18.2,CLDN18.2,increased mRNA and protein levels
same,therapeutic effect on xenograft,MiaPaCa-2-LVT xenografts,no significant therapeutic effect
same,susceptibility for IMAB362 mediated ADCC,DANG [1],higher susceptibility
same,cell cycle arrest,DANG [2],cell cycle arrest in S-Phase
same,therapeutic effect on xenograft,BxPC3-LVT xenografts,no significant therapeutic effect
same,tumor growth,[3],strongly inhibited in tumor growth
"O=C1[O][Pt]2([NH][C@@H]3CCCC[C@H]3[NH]2)[O]C1=O [oxaliplatin, [(1R,2R)-cyclohexane-1,2-diamine](ethanedioato-O,O')platinum(II)]",IC50 Inhibition of Proliferation,Capanl-LVT,~0.1 µg/mL
same,IC50 Inhibition of Proliferation,MiaPaCa-2-LVT,0.05 to 0.1 µg/mL
same,IC50 Inhibition of Proliferation,DANG [4],~0.5 µg/mL
same,IC50 Inhibition of Proliferation,BxPC3-LVT,0.5 to 1 µg/mL
same,cell cycle phase distribution,Kato III cells,enrichment of cells predominantly in the G1- and G2-phases
